Test results from patent publication EP0367302A2, “Process for semi-synthesis of human insulin, water-soluble cross-linked Achromobacter protease I for use therein and a process for preparing the same” (priority 1982, dated 1983).
Read-outs that look alike come from different tables or passages of the source.

Columns and labels:
PLP-Ia = assay type: biochemical, Achromobacter lyticus M 497-1
[1] = target: water-soluble cross-linked polymer of PLP (Achromobacter lyticus, UniProt P15636); experiment: Activity to substrates (substrate specificity), cross-linked polymer; assay type: biochemical; conditions: enzyme: Cross-Linked Polymer (0.144 u); pH 9.5, 30°C; Benzoyl lysine-p-nitroanilide = 100
Protocol: (§1) The activity of the enzyme was measured as follows. […] After preliminarily warming at 30°C, 0.1 mℓ of the enzyme was added to the mixture and the mixture was reacted accurately for 25 minutes at 30°C. After completion of the reaction, 1.0 mℓ of a 45% acetic acid aqueous solution was added to discontinue the reaction. Then, the reaction liquid was colorimetrically measured at wavelength of 405 nm to determine absorbance. As an enzyme unit, an amount of enzyme producing 1 µmole/min of p-nitroaniline at 30°C was made 1 unit (u). Enzyme titer was calculated according to the following equation. [formula] […] Thereafter, activities to the respective substrates were measured according to the method for measuring activity described above. Results of Table 8 were obtained.

[2] = target: PLP prior to Polymerization (Achromobacter lyticus, UniProt P15636); experiment: Activity to substrates (substrate specificity), PLP prior to polymerization; assay type: biochemical; conditions: enzyme: PLP prior to Polymerization; pH 9.5, 30°C; Benzoyl lysine-p-nitroanilide = 100
Protocol: as §1

Achromobacter protease I = Achromobacter protease I (Achromobacter lyticus, UniProt P15636); conditions: cited from earlier work
Chain of Achromobacter protease I (P15636 206-473 limits assumed): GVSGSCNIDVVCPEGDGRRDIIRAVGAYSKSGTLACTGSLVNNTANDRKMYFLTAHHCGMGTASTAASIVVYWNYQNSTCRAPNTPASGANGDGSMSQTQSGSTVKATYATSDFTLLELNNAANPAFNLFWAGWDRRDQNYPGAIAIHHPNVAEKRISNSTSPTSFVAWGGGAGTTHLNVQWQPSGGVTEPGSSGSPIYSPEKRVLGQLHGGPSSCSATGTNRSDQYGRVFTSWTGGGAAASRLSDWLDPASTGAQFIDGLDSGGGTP

Chain of PLP prior to Polymerization (P15636 206-473 limits assumed): as above
Chain of water-soluble cross-linked polymer of PLP (P15636 206-473 limits assumed): as above

Compound	Relative Activity (PLP-Ia; 1000 µM) [%]	Relative Activity [1] [%]	Relative Activity [2] [%]	other results
O[C@H](CS)[C@H](O)CS (racemic) [dithiothreitol]	103.9			
CC(=O)N[C@@H](Cc1ccccc1)C(=O)Nc1ccc([N+](=O)[O-])cc1 [Acetylphenylalanine-p-nitroanilide]		0.00	0.00	
C[C@H](N)C(=O)Nc1ccc([N+](=O)[O-])cc1 [Alanine-p-nitroanilide]		0.00	0.00	
N=C(N)NCCC[C@H](NC(=O)c1ccccc1)C(=O)Nc1ccc([N+](=O)[O-])cc1 [Benzoyl arginine-p-nitroanilide]		0.04	0.01	
NCCCC[C@H](NC(=O)c1ccccc1)C(=O)Nc1ccc([N+](=O)[O-])cc1 [Benzoyl lysine-p-nitroanilide]		100	100	
O=C(N[C@@H](Cc1ccc(O)cc1)C(=O)Nc1ccc([N+](=O)[O-])cc1)c1ccccc1 [Benzoyl tyrosine-p-nitroanilide]		0.00	0.00	
[Ca+2].[Cl-].[Cl-] [CaCℓ₂]	102.2			
N[C@@H](CCC(=O)O)C(=O)Nc1ccc([N+](=O)[O-])cc1 [Glutamic acid-p-nitroanilide]		0.00	0.00	
[Cl][Hg][Cl] [HgCℓ₂]				Relative Activity (PLP-Ia; 100 µM): 109.4%
N[C@@H](CS)C(=O)O [L-cystein]	97.8			
CC(C)C[C@H](N)C(=O)Nc1ccc([N+](=O)[O-])cc1 [Leucine-p-nitroanilide]		0.00	0.00	
NCCCC[C@H](N)C(=O)Nc1ccc([N+](=O)[O-])cc1 [Lysine-p-nitroanilide]		5.6	2.4	
[Cl-].[Na+] [NaCℓ₂]				Relative Activity (PLP-Ia; bz-lys-p-na amidase assay, pH 9.5, 25 min, 1000 µM): 99.0%
[Cl-].[Cl-].[Zn+2] [ZnCℓ₂]	44.1			inhibition of the enzyme (in words) (PLP-Ia): inhibited
O=C(O)CI [monoiodoacetate]	84.4			
c1cnc2c(c1)ccc1cccnc12 [o-phenanthroline]	99.3			inhibition of the enzyme (in words) (Achromobacter protease I): not inhibited
O=C(O)c1cc[c]([Hg][Cl])cc1 [p-chloromercury benzoate]				Relative Activity (PLP-Ia; 100 µM): 94.8%; inhibition of the enzyme (in words) (Achromobacter protease I): not inhibited
O=S(=O)(F)Cc1ccccc1 [phenylmethylsulfonyl fluoride]				inhibition of the enzyme (in words) (PLP-Ia): undergoes inhibition; Relative Activity (PLP-Ia; 2000 µM): 18.3%
Cc1ccc(S(=O)(=O)N[C@@H](CCCNC(=N)N)C(=O)CCl)cc1 [tosyl-L-arginine chloromethyl ketone]				Relative Activity (PLP-Ia; 100 µM): 79.1%
Cc1ccc(S(=O)(=O)N[C@@H](CCCCN)C(=O)CCl)cc1 [tosyl-L-lysine chloromethyl ketone]				inhibition of the enzyme (in words) (PLP-Ia): undergoes inhibition; Relative Activity (PLP-Ia; 100 µM): 0%; inhibition of the enzyme (in words) (Achromobacter protease I): strongly inhibited
Cc1ccc(S(=O)(=O)N[C@@H](Cc2ccccc2)C(=O)CCl)cc1 [tosyl-L-phenylalanine chloromethyl ketone]	92.2			inhibition of the enzyme (in words) (Achromobacter protease I): not inhibited
CoCℓ₂	98.1			
MgCℓ₂	95.3			
MnCℓ₂	101.3			
NiCℓ₂	83.8			
diisopropyl phosphochloride				inhibition of the enzyme (in words) (Achromobacter protease I): strongly inhibited
